Data published in US20230055441A1 (NONO INC., priority 2020, published 2023).
Entries after “also recorded” stand apart in the source; their conditions may differ. Square brackets hold non-standard residues; d marks the D form. Ends that are not written are not given here. Peptide text beside a SMILES is read from it.

How the values were obtained:
[1] = Pharmacokinetic analysis in rats by route (subcutaneous, pulmonary instillation, intramuscular, intravenous); details: rat; for Cmax / plasma concentration, pulmonary instillation / plasma exposure, pulmonary instillation / AUC / plasma exposure, subcutaneous / Cmax, subcutaneous: 25 mg/kg (Table 4); for plasma exposure, pulmonary instillation: versus intrapulmonary NA-1; for AUC / plasma exposure, subcutaneous / Cmax, subcutaneous: NA-1 versus IV NA-1, others versus subcutaneous NA-1
Experimental: Rats were anaesthetized in the supine position (Isoflurane 1.5-%) and allowed to breath spontaneously in 0.5 L/min 02. The left femoral artery was cannulated for blood sampling.
Test agents were prepared at the stablish concentration in a total volume of vehicle. Pulmonary instillation was performed by intubation with a 14G catheter connected to a 1 cc syringe and the test agent will be delivered through the catheter. Subcutaneous (SQ or SC) injection was injected into the area of the left flank, no more than 2 ml of total volume per site.
Each dose was evaluated in 3 rats for each administration strategy. […] For the first experiment, evaluating two different administration routes (SQ and PI), blood samples were collected at 8 different timepoints: Pre and at 7 additional times (1, 2.5, 5, 10, 15, 30, 60 min) post dose (250 ul/sample). For the 24-hour PK curve experiment, blood samples were collected at 11 timepoints: Pre, 2.5, 5, 10, 15, 30, 60 min, 3 hr, 6 hr, 12 hr and 24 hr.
HPLC quantification: Plasma was separated from blood and stored at −80° C. until used. Each sample was precipitated by adding 1M HCl (10 ul/100 ul sample) at >80° C., centrifuged (12,000 rpm×15 min) and the precipitate collected. A 5 cm C—18 RP-HPLC column was equilibrated with 10% acetonitrile with 0.1% TFA at 40° C., the sample was injected and run in an Agilent 1260 Infinity Quaternary LC System. (30 min at 1.5 mL/min; gradient from 10% to 35% acetonitrile in 0.1% TFA; Absorbance detected at 220 nm). Standard curves for HPLC were generated from plasma samples spiked with known quantities of test agent.

PSD95PDZ2 [2] = target: T1, PSD95PDZ2 (Homo sapiens, UniProt P78352); test: Competitive ELISA with biotinylated-NA-1 on coated PSD95PDZ2; assay type: binding
Experimental: Binding was evaluated with a competitive ELISA assay. A plate was coated with 1 ug/ml PSD95PDZ2 in 50 mM bicarbonate buffer overnight at 4C. The plate was blocked in 2% BSA in PBST (0.05%) for 2 h at room temperature. […] The wells were washed again, and then incubated with TMB solution for 10 min. The reaction was stopped with 100 ul H2SO4. Absorbance was determined at 450 nm with the synergy H1 reader.
Target sequence in this assay (P78352 160-246 limits assumed): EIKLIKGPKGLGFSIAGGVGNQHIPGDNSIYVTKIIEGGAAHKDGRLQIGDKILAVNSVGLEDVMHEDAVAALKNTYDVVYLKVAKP

tPA = tPA in PBS buffer (no plasma)
[3] = tested on: TNK-tissue plasminogen activator; test: human plasma with TNK
[4] = tested on: TNK-tissue plasminogen activator; test: rat plasma with TNK
PSD95PDZ2 [5] = target: T1, PSD95PDZ2; test: direct ELISA; biotinylated peptide; unit printed "um"
Target sequence in this assay (P78352 160-246): as the sequence (P78352 160-246 limits assumed) above

PSD95PDZ2 [6] = target: T1, PSD95PDZ2; test: direct ELISA; biotinylated peptide
Target sequence in this assay (P78352 160-246): as the sequence (P78352 160-246 limits assumed) above

plasmin = test: digested with plasmin
TNK = TNK in phosphate buffered saline alone
[7] = Pharmacokinetics after subcutaneous injection in non-human primates; assay type: in vivo, cynomolgus macaques; details: for plasma concentrations: cynomolgus macaques
Source text: All values are presented as mean±SD; Statistical significance when compared to nerinetide alone is indicated as * (one-way ANOVA with post-hoc turkey's correction, *P<0.01). (Cmax: maximum plasma concentrations based on the extrapolated time-zero value; t1/2: half-life at terminal phase; tmax: time to reach Cmax; AUC0-t: area under the concentration-time curve from 0 to the last measured value; AUC0-inf: extrapolated area under the concentration-time curve from 0 to infinity; Cl: total clearance). Data is presented as mean±SD of three-four animals per group. The (−) represent data not reported due to an extrapolation of the AUC0-inf greater than 20% and R^2 lower than 0.9.

histamine = test: Histamine release in rat plasma (histamine ELISA)
Experimental: Blood samples were collected at 11 timepoints: Pre, 2.5, 5, 10, 15, 30, 60 min, 3 hr, 6 hr, 12 hr and 24 hr. Histamine levels were quantified by using commercially available histamine ELISA assay kit (Histamine ELISA-H1531-K01, Eagle Bioscience). The plates were coated with the plasma samples (50 ul/well) incubated for 60 minutes at room temperature on an orbital shaker with medium frequency. Then 100 ul of enzyme conjugate was added to the wells and incubated for 20 minutes at room temperature. Samples were washed again, and then incubated for 25 minutes at room temperature with TMB solution. The reaction was stopped with 100 ul H2SO4. Absorbance was determined on an ELISA plate reader at 450 nm.
Blood samples were taken at pre-injection and at 0, 1, 2.5, 5, 10, 15, 30- and 60-minutes post dose and used for histamine levels quantification using commercially available kit.

[8] = Plasma concentrations 15 minutes after subcutaneous dose in rats of the 3-pial vessel occlusion study; assay type: in vivo; details: rat
Experimental: Unlike transient models of stroke in rats where much lower doses are required for neuroprotection, neuroprotection in 3 pial vessel occlusion models of stroke seems to require plasma concentrations of nerinetide at or above 2 ug/mL (or molar equivalent). […] Although the plasma levels continue to increase through about 3 hours then decrease, it is important to achieve rapid accumulation in the blood and brain for emergency indications like stroke. […] For pharmacokinetic sample analysis, calibration standard samples at concentrations of 0, 2.5, 5, 10, 15, 20 and 40 ug/mL of nerinetide were prepared by spiking 1 μL of the appropriate stock to 100 μL of plasma. […] Data is presented as mean±SD.

PSD95PDZ2 [9] = target: T1, PSD95PDZ2; test: competitive ELISA, PSD95PDZ2 coated, competitor biotinylated NA-1
Target sequence in this assay (P78352 160-246 limits assumed): as above

[10] = listed as D-Tat-L-IESDV, 25 mg/kg
[11] = subcutaneous 25, 8.3, 2.8 mg/kg
[12] = subcutaneous 25 mg/kg versus nerinetide IV infusion

Compound: CC[C@@H](C)[C@@H](NC(=O)[C@@H](CO)NC(=O)[C@@H](CO)NC(=O)[C@@H](CC(C)C)NC(=O)[C@@H](CCCCN)NC(=O)[C@@H](CCCNC(=N)N)NC(=O)[C@@H](CCCNC(=N)N)NC(=O)[C@@H](CCCNC(=N)N)NC(=O)[C@@H](CCC(N)=O)NC(=O)[C@@H](CCCNC(=N)N)NC(=O)[C@@H](CCCNC(=N)N)NC(=O)[C@@H](CCCCN)NC(=O)[C@@H](CCCCN)NC(=O)[C@@H](CCCNC(=N)N)NC(=O)CNC(=O)[C@H](N)Cc1ccc(O)cc1)C(=O)N[C@H](CCC(=O)O)C(=O)N[C@H](CO)C(=O)N[C@H](CC(=O)O)C(=O)N[C@@H](C(=O)O)C(C)C [D-NA-1, ygrkkrrqrrrklssiesdv] (H-[dY]G[dR][dK][dK][dR][dR][dQ][dR][dR][dR][dK][dL][dS][dS][dI][dE][dS][dD][dV]-OH)
- Cmax / plasma concentration, pulmonary instillation [1]: higher plasma concentration
- plasma exposure, pulmonary instillation [1]: greater plasma exposure
- AUC / plasma exposure, subcutaneous [1]: also increased Cmax and AUC relative to subcutaneous NA-1 but not to the same extent
- Cmax, subcutaneous [1]: also increased Cmax and AUC relative to subcutaneous NA-1 but not to the same extent
- EC50 compared among NA-1, D-Tat-L-2B9C and D-NA-1 (PSD95PDZ2 [2]; FIG. 12): about ten-fold lower

Compound: ygrkkrrqrrrKLSSIESDV ([dY]G[dR][dK][dK][dR][dR][dQ][dR][dR][dR]KLSSIESDV)
- not cleaved (tPA): no degradation
- not cleaved [3]: stable
- not cleaved [4]: stable

Compound: D-Tat-L-NA-1 (Bio-D-Tat-L-NA1)
- EC50 (PSD95PDZ2 [5]): 139 nM

Compound: D-NA-1 NA1 (Bio-D-NA1)
- EC50 (PSD95PDZ2 [6]): 1380 nM

Compound: YGRKKRRQRRRKLSSIESDV
- not cleaved (tPA): no degradation
- fragment found (plasmin): RRQRRRKLSSIESDV; also recorded: RQRRRKLSSIESDV; also recorded: QRRRKLSSIESDV; also recorded: RRKLSSIESDV; also recorded: RKLSSIESDV; also recorded: KLSSIESDV; also recorded: LSSIESDV
- not cleaved (TNK): not directly cleaved

Compound: CC[C@H](C)[C@H](NC(=O)[C@@H](CO)NC(=O)[C@@H](CO)NC(=O)[C@@H](CC(C)C)NC(=O)[C@@H](CCCCN)NC(=O)[C@@H](CCCNC(=N)N)NC(=O)[C@@H](CCCNC(=N)N)NC(=O)[C@@H](CCCNC(=N)N)NC(=O)[C@@H](CCC(N)=O)NC(=O)[C@@H](CCCNC(=N)N)NC(=O)[C@@H](CCCNC(=N)N)NC(=O)[C@@H](CCCCN)NC(=O)[C@@H](CCCCN)NC(=O)[C@@H](CCCNC(=N)N)NC(=O)CNC(=O)[C@H](N)Cc1ccc(O)cc1)C(=O)N[C@@H](CCC(=O)O)C(=O)N[C@@H](CO)C(=O)N[C@@H](CC(=O)O)C(=O)N[C@H](C(=O)O)C(C)C [NA-3, ygrkkrrqrrrklsslESDV] (H-[dY]G[dR][dK][dK][dR][dR][dQ][dR][dR][dR][dK][dL][dS][dS]IESDV-OH)
- plasma exposure, pulmonary instillation [1]: greater plasma exposure
- Cmax / plasma concentration, pulmonary instillation ([1]; 25 mg/kg): higher plasma concentration
- Cmax / plasma concentration, pulmonary instillation [1, 10]: higher CMax than for NA-1 or D-Tat-L-2B9C
- dose dependence of AUC, subcutaneous [1, 11]: dose-dependent increasing linearly with dose
- dose dependence of Cmax, subcutaneous [1, 11]: dose-dependent increasing linearly with dose
- AUC / plasma exposure, subcutaneous ([1]; 25 mg/kg): greater plasma exposure relative to SQ NA-1
- Cmax, subcutaneous ([1]; 25 mg/kg): higher plasma concentration
- AUC / plasma exposure, subcutaneous [1, 10]: increased Cmax and AUC compared with subcutaneous NA-1
- Cmax, subcutaneous [1, 10]: increased Cmax and AUC compared with subcutaneous NA-1
- IC50 (PSD95PDZ2 [2]): < 5000 nM
- plasma concentrations ([7]; 7.6 mg/Kg subcutaneous): able to achieve plasma concentrations higher than those demonstrated to be effective in humans
- plasma concentrations ([7]; 25 mg/kg subcutaneous): able to achieve plasma concentrations higher than those demonstrated to be effective in humans
- AUC [7, 12]: greater Cmax and AUC than nerinetide IV infusion
- Cmax [7, 12]: greater Cmax and AUC than nerinetide IV infusion
- histamine release (histamine; 25 mg/kg SQ): resulted in histamine release but still much less than 7.6 mg/kg IV
- histamine release (histamine; subcutaneous 2.8 mg/kg): Lack of significant histamine release
- histamine release (histamine; subcutaneous 2.8 mg/kg, listed as D-Tat-L-IESDV): did not result in significant histamine release
- histamine release (histamine; subcutaneous 8.3 mg/kg): Lack of significant histamine release
- histamine release (histamine; subcutaneous 8.3 mg/kg, listed as D-Tat-L-IESDV): did not result in significant histamine release
- dose proportionality between treatment dose and Cmax ([8]; single subcutaneous administration 25, 7.6, 2.5 mg/kg): dose proportionality
- stability in plasma ([8]; subcutaneous, compared to nerinetide): higher stability in plasma
- plasma concentration at 15 min post-dose ([8]; subcutaneous, compared to nerinetide at the same dose): higher concentration at 15 min post-dose

Compound: D-NA-1 (peptide)
- fold difference of EC50 against NA-1 and D-Tat-L-2B9C (PSD95PDZ2 [9]): 10 fold
